According to patent publication US20120035247A1, “RNA Interference Mediated Inhibition of Signal Transducer and Activator of Transcription 6 (STAT6) Gene Expression Using Short Interfering Nucleic Acid (siNA)” (Merck Sharp & Dohme Corp., priority 2009, published 2012):
[invAb] = inverted abasic unit; m = 2'-O-methyl; r = 2'-OH (RNA); f = 2'-fluoro

Key:
STAT6 mRNA [1] = assay: STAT6 siNA screen and dose response in human A549 cells, STAT6 mRNA by quantitative RT-PCR (Taqman); format: cell-based; settings: for % KD STAT6 mRNA 10 nM / IC50: Table 4, human A549 cells; for % KD STAT6 mRNA 10 nM / IC50 / % KD STAT6: mean ± S.D.; for % KD STAT6 10 nM: Table 5, A549 cells, three experiments, mean ± standard deviation; for % KD STAT6: human A549 cells, 10 nM siNA, 24 hrs, normalized to GAPDH and non-targeting control, n = 3
Procedure, shortened: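 A549 cells were transfected with siNA–RNAiMax complexes at a final 10 nM siNA and incubated 24 h without a medium change. STAT6 mRNA was measured by TaqMan qRT-PCR on cell lysates. Knock-down was calculated by the comparative Ct (ΔΔCt) method against the non-targeting control siNA, with relative expression taken as 2^−ΔΔCt.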

STAT6 mRNA [2] = assay: STAT6 siNA screen in mouse NIH 3T3 cells, STAT6 mRNA by quantitative RT-PCR (Taqman); format: cell-based; settings: mouse NIH3T3 cells, 10 nM siNA, 24 hrs, normalized to GAPDH and non-targeting control, n = 2
Procedure, shortened: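 NIH 3T3 cells, 5000/well, transfected after 24 h with siNA (10 nM final) via RNAiMax and harvested 24 h later. STAT6 mRNA quantified by TaqMan RT-qPCR with GAPDH; knock-down by comparative Ct (2^−ΔΔCt) against non-targeting control siNA.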

[3] = test system: human STAT4 mRNA transcript; assay: STAT4 specificity screen in human A549 cells, STAT4 mRNA by quantitative RT-PCR; format: cell-based; settings: three experiments, mean ± standard deviation
Procedure: A549 (human; ATCC cat# CCL-185): Cells were cultured at 37° C. in the presence of 5% CO2 and grown in Ham's F12K medium with 2 mM L-glutamine adjusted to contain 1.5 g/L sodium bicarbonate and supplemented with fetal bovine serum at a final concentration of 10%, 100 μg/mL of streptomycin, and 100 U/mL penicillin.
A series of probes and primers were used to detect the various mRNA transcripts of the genes of 13-Actin (human cell line only), and of STATE and GAPDH in mouse and human cell lines. All Taqman probes and primers for the experiments here-in described were supplied as pre-validated sets by Applied Biosystems, Inc. (see Table 2).
The assays were performed on an ABI 7900 instrument, according to the manufacturer's instructions. A TaqMan Gene Expression Master Mix (provided in the Cells-to-CTT™, Applied Biosystems, Cat #4399002) was used. The PCR reactions were carried out at 50° C. for 2 min, 95° C. for 20 min followed by 40 cycles at 95° C. for 15 secs and 60° C. for 1 min.
The expression level of the gene of interest and % knock-down was calculated using Comparative Ct method:
ΔΔCt=ΔCt(Target siNA)−ΔCt(NTC)
Relative expression level=2^−ΔΔCt
The non-targeting control siNA was, unless otherwise indicated, chosen as the value against which to calculate the % knock-down, because it is the most relevant control.
The siNAs from Table 4 were tested in human A549 cell line at a lower concentration (1 nM versus the original screening concentration of 10 nM) to determine the effect of the STATE siRNAs on the mRNA transcript of human STAT4.

eosinophilia and AHR = settings: rat model of allergic disease; cited from earlier work
mouse spleen T cells = settings: in vitro; cited from earlier work

Row | Molecule | % KD STAT6 mRNA 10 nM (STAT6 mRNA [1]) | IC50 (STAT6 mRNA [1]) | % KD STAT6 10 nM (STAT6 mRNA [1]) | % KD STAT6 (STAT6 mRNA [1]) | % KD STAT6 (STAT6 mRNA [2]) | % KD STAT4 1 nM [3] | AHR (eosinophilia and AHR) | eosinophilia (eosinophilia and AHR) | differentiation of mouse spleen T cells into the Th2 phenotype (mouse spleen T cells)
1 | 30005-DC: STAT6 siNA duplex; sense SEQ ID NO: 74, antisense SEQ ID NO: 75; target CUGCACAGCUUGAUAGAAA, site 755 (sense CUGCACAGCUUGAUAGAAATT; antisense UUUCUAUCAAGCUGUGCAGUU; sense: DNA at AGT, 2'-fluoro at CU, [invAb] at 5' end, 3' end, backbone not given here; antisense: sugars from the 5' end rrrffmffmmmffmfmfmmmm, backbone not given here) [STAT6 siNA duplex; target CUGCACAGCUUGAUAGAAA, site 755] | 70 ± 8.9% | 23.2 ± 10.3 pM | 70.0 ± 8.9% | 70 ± 8.9% | −8 ± 0.5% | 13.2 ± 14.4% | – | – | –
2 | 29999-DC: STAT6 siNA duplex; sense SEQ ID NO: 62, antisense SEQ ID NO: 63; target GUUCGAUUCCUGUUGGGCU, site 1148 (sense GUUCGAUUCCUGUUGGGCUTT; antisense AGCCCAACAGGAAUCGAACUU; sense: DNA at AGT, 2'-fluoro at CU, [invAb] at 5' end, 3' end, backbone not given here; antisense: sugars from the 5' end rrrffmmfmmmmmffmmmfmm, backbone not given here) [STAT6 siNA duplex; target GUUCGAUUCCUGUUGGGCU, site 1148] | 72.8 ± 1^ % | 48.7 ± 21.7 pM | 72.8 ± 1.0% | 72.8 ± 1% | 53.4 ± 3.1% | −17.4 ± 20.9% | – | – | –
3 | NC(=O)c1cnc(Nc2ccc(N3CCOCC3)cc2)nc1NCc1c(F)ccc(F)c1F [YM341619] | – | – | – | – | – | – | inhibited | inhibited | inhibited
